Assay results from US8030320B2, “Derivatives of 1-OXO-1,2-dihydroisoquinoline-5-carboxamides and of 4-OXO-3,4-dihydroquinazoline-8-carboxamides, preparation thereof and application thereof in therapeutics” (Sanofi-Aventis, priority 2007, dated 2011).
Counter-ions that a name gives are not always drawn.

Tests used:
[1] = target: T1, purified recombinant form of human BACE1 aspartyl protease (Homo sapiens, UniProt P56817); assay: BACE-1 FRET assay, in vitro inhibition of β-secretase activity; type: biochemical; conditions: peptide substrate 0.25 μM, enzyme 10 nM, sodium acetate buffer pH 4.5, 60 min, ambient temperature; read-out: IC50 (concentration of product giving 50% inhibition of the enzyme activity)
T1 construct: hexahistidine (His6) (C); made in house; host or cells: Drosophila cells
T1 sequence (P56817 46-501): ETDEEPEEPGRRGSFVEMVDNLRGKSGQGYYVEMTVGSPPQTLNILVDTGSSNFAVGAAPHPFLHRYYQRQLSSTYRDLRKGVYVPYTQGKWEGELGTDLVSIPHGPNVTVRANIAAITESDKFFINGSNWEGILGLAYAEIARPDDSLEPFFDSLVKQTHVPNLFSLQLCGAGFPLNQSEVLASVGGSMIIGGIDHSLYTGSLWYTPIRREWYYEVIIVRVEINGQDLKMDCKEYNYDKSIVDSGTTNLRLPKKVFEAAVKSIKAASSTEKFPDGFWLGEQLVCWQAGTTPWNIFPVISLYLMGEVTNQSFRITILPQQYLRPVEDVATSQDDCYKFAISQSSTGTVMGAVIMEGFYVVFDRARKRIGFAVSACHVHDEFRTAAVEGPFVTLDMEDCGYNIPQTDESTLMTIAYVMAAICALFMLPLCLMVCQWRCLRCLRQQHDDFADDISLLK
Experimental: The tests consisted in measuring the in vitro inhibition of the β-secretase activity by the compounds of the invention, via the use of the “BACE-1 FRET Assay Kit, Red” available from PanVera-Invitrogen Inc. The β-secretase activity measured corresponds to that of a purified recombinant form of human BACE1 aspartyl protease (the latter comprising a hexahistidine tag at the C-terminal position) produced by expression in Drosophila cells. The purified enzyme is conditioned in TRIS buffer (18 mM) at pH 7.5 containing NaCl (0.45M), MnCl2 (0.9 mM), CaCl2 (0.9 mM), α-D-methylmannoside and 10% glycerol, and stored at −80° C. until use. The BACE1 activity is measured from the cleavage of a fluorogenic peptide substrate sold by Invitrogen (PanVera BACE1/β-secretase FRET assay kit, Red; reference P2985), based on the principle of fluorescence resonance energy transfer (FRET) and corresponding to the Rh-EVNLDAEFK-Quencher sequence; the cleavage of the peptide is measured from the increase of the fluorescent signal emitted by the rhodamine derivative (Rh). The test is carried out in a 96-well microplate in order to determine the inhibition of the enzyme activity by the products of the invention. […] When the incubation is finished, the fluorescence is measured in a spectrofluorimeter, at the excitation wavelength of about 543 nm and emission wavelength of about 585 nm. […]

Row | IC50 [1] [nM] | melting point [°C] | SMILES
1 | 2600 | – | CCCC(CCC)n1ccc2c(C(=O)N[C@@H](Cc3ccccc3)[C@H](O)CNCc3cccc(C(F)(F)F)c3)cccc2c1=O [Compound 1, N-[(1S,2R)-1-benzyl-2-hydroxy-3-{[3-(trifluoromethyl)benzyl]-amino}propyl]-1-oxo-2-(1-propylbutyl)-1,2-dihydroisoquinoline-5-carboxamide hydrochloride (1:1)]
2 | 830 | 152 | CCCC(CCC)n1cnc2c(C(=O)N[C@@H](Cc3ccccc3)[C@H](O)CNCc3cccc(C(F)(F)F)c3)cccc2c1=O.Cl [Compound 3, N-[(1S,2R)-1-benzyl-2-hydroxy-3-{[3-(trifluoromethyl)benzyl]-amino}propyl]-4-oxo-3-(1-propylbutyl)-3,4-dihydroquinazoline-8-carboxamide hydrochloride (1:1)]
